We go through six compounds from USRE46372E1, “Method for treating hearing loss” (The Regents of the University of Michigan, priority 2006, dated 2017).

“Also recorded” adds a separate entry of the source.

The test system of series [1] is guinea pigs. The experiment in a line: Noise-induced hearing loss in guinea pigs, ABR threshold shift. The settings on record: for permanent hearing loss 10 days post noise (FIG. 1), protection in words: Trolox 100 mg/kg once daily or 50 mg/kg twice daily, betahistine 30 mg/kg once daily or 18 mg/kg, versus saline control; for threshold shift, as averaged across all frequencies: ABR at 4, 8, 16 kHz, 10 days after 120 dB SPL Octave Band Noise centered at 4 kHz for 5 h, saline control about 45. In kind it is in vivo, guinea pig.

The subject of series [2] is guinea pigs. The series can be described thus: Gentamicin-induced hair cell loss in guinea pigs (quantitative sensory hair cell assessment). It is filed as in vivo, guinea pig. Here is the method: In addition, outer hair cell loss and inner hair cell loss is measured both in the whole cochlea and in a trauma region of the cochlea. After treatment according to the method of the present disclosure, outer hair cell loss in the whole cochlea is less than 10%, and inner hair cell loss in the whole cochlea is less than 5%. Outer cell hair loss in the trauma region is less than 20%, while inner hair cell loss in the trauma region is less than 10%. […] To obtain those results, the composition is orally administered to guinea pigs for 10 to 16 days prior to first administration of the antibiotic, and the composition and antibiotic are administered again each day for forty days. The guinea pigs are then euthanized and the hair cells counted. Conversely, when the antibiotic is administered for forty days without administering the composition described herein in conjunction with the antibiotic, outer hair cell loss approaches 80%, while inner hair cell loss is about 8%.
The method of treating side effects of antibiotic treatment with the composition of the present disclosure is again performed on guinea pigs (normal hearing, male, pigmented). Six guinea pigs are subject to antibiotic administration and treatment with the composition of the present disclosure. The guinea pigs were fed with a chow containing the composition including beta-carotene, vitamin C, vitamin E, and magnesium in the amounts shown in Table 3 for 10 days prior to administration of a first dosage of gentamicin antibiotic, and were fed the same chow every day for 41 days. […] Fourteen days following cessation of antibiotic treatment, the guinea pigs were euthanized, left cochleae harvested, and quantitative sensory hair cell assessments were performed. […]
Six guinea pigs are subject to antibiotic administration in the absence of treatment with the composition of the present disclosure. […] Fourteen days following cessation of antibiotic treatment, the guinea pigs were euthanized, left cochleae harvested, and quantitative sensory hair cell assessments were performed.

The subject of series [3] is guinea pigs. The experiment in a line: Missing hair cells (hair cell counts, cytocochleograms) after noise exposure in guinea pigs. The settings on record: after 120 dB SPL noise for 5 h, in words.
Method: After ABR testing, the guinea pigs are deeply anesthetized and decapitated. Temporal bones are quickly removed, dissected open and fixed with 4% paraformaldehyde. The following day, an otic capsule, lateral wall, and tectorial membrane are removed, and a bony modiolus is carefully detached. Organ of Corti tissue, attached to the modiolus, is permeabilized with 0.3% Triton-X and incubated with rhodamine phalloidin diluted 1:100 in phosphate buffered saline (30 min). After washing the tissues, individual turns from the organ of Corti are dissected, mounted on microscope slides, and examined and photographed using a Leica DMRB epiflourescence microscope. Hair cell counts are conducted, and cytocochleograms are prepared as known in the art.
Guinea pigs are treated with other compositions in order to compare the efficacy of the composition of the present disclosure with the other compositions. […] The guinea pigs are subjected to the same ABR testing, and the components of the ear are dissected, as described above in the Example to provide information on threshold shift and hair cell loss.
Eight groups of guinea pigs (where the number of guinea pigs ranges from 5 guinea pigs to 10 guinea pigs per group) are respectively treated with other compositions to compare the efficacy of the “ACEMg” composition of the present disclosure with the other compositions. […] The eight groups of guinea pigs are exposed to the same ABR testing, and the components of the ear are dissected as previously described in the Example to provide information on threshold shift and outer hair cell loss.
For series [4] the following is noted: in words; cited from earlier work.
The conditions of series [5]: in words; cited from earlier work. The source holds these as a separate data set.
[6] abbreviates: antibiotic administered without the composition.

On to `Cc1c(C)c2c(c(C)c1O)CCC(C)(C(=O)O)O2` (stereo not drawn), for which the “permanent hearing loss 10 days post noise (FIG. 1), protection in words” value in the series with guinea pigs [1] was “less permanent hearing loss than control animals”.

As to `CNCCc1ccccn1` [betahistine], the “permanent hearing loss 10 days post noise (FIG. 1), protection in words” value in the series with guinea pigs [1] was “approximately the same amount of protection as those treated with vitamin E; also recorded: does not exhibit an additive effect”.

With gentamicin, in the series with guinea pigs [2] (setting [6]), the “inner hair cell loss” value is recorded as “about 8%” and the “outer hair cell loss” value is given as about 80%. In the series with guinea pigs [2] (gentamicin 140 mg/kg s.c. once a day for 16 days, no composition, in words), the “ototoxic effect on hair cells” value is recorded as “dramatic cell death of outer hair cells”.

For `CN(CC(=O)O)C(=N)N` [creatine], in the series on guinea pigs [1], the “threshold shift, as averaged across all frequencies” value is reported as “about 34 decibels”. The “sensory cell death by hair cell counts, whole cochlea and trauma region, compared to the saline control” value with guinea pigs [3] is on record as “reduced sensory cell death”.

`Oc1ncnc2[nH]ncc12` [allopurinol]: the “reducing noise-induced hearing loss” value in series [4] is “effective”. In series [5], the reducing gentamicin-induced ototoxicity result was “ineffective”.

For `O=S(=O)([O-])[O-].[Mg+2]` [magnesium, magnesium sulfate], the “threshold shift, as averaged across all frequencies” value in the series with guinea pigs [1] is “about 41 decibels”. Further, the results for the “sensory cell death by hair cell counts, whole cochlea and trauma region, compared to the saline control” value in the series on guinea pigs [3] and in the series on guinea pigs [3] (listed as Mg) were “reduced sensory cell death” and “significantly reduced sensory cell death”, respectively.
